According to patent US9139581B2 (PORTOLA PHARMACEUTICALS, INC., priority 2008, dated 2015):

biological target: T1, full length active recombinant SYK enzyme (Homo sapiens, UniProt P43405); test: Inhibition of Syk tyrosine phosphorylation activity (LANCE TR-FRET); type: biochemical; details: Table 3; 1 nM SYK, 100 μM ATP; read-out: Syk IC50 code
T1 construct: full length active recombinant SYK enzyme (Millipore, Calif.); purchased Millipore
Protocol: The in vitro and in vivo human syk activities of the inventive compounds can be determined by various procedures known in the art, such as a test for their ability to inhibit the activity of human plasma syk. […] Inhibition of Syk Tyrosine Phosphorylation Activity Potency of candidate molecules for inhibiting syk tyrosine phosphorylation activity is assessed by measuring the ability of a test compound to inhibit syk-mediated tyrosine phosphorylation of a syk-specific substrate. SYK tyrosine phosphorylation activity is measured using the LANCETM Technology developed by Perkin Elmer Life and Analytical Sciences (Boston, Mass.). LANCETM refers to homogeneous time resolved fluorometry applications using techniques such as time-resolved fluorescence resonance energy transfer assay (TR-FRET) (see generally for procedures in Perkin Elmer Application Note-How to Optimize a Tyrosine Kinase Assay Using Time Resolved Fluorescence-Based LANCE Detection, wwww.perkinelmer.com/lifesciences). The assay principle involves detection of a phosphorylated substrate using energy transfer from a phosphospecific europium-labeled antibody to streptavidin-allophycocyanin as an acceptor. To test the ability of candidate molecules to inhibit SYK tyrosine phosphorylation activity, molecules are reconstituted in 30% DMSO and serially diluted 1:3 with the final dilution containing DMSO in the absence of the candidate molecule. The final DMSO concentration in the assay is 3%. Kinase assays are performed as a two part reaction. The first reaction is a kinase reaction and which comprises of a candidate molecule, full length active recombinant SYK enzyme (Millipore, Calif.) and biotin-labeled SYK-specific substrate biotin-[…]-OH. The second reaction involves termination of the kinase reaction and the simultaneous addition of the detection reagents-europium-labeled anti-phosphotyrosine reagent (Eu-W1024-PY100, Perkin Elmer, Boston, Mass.) and Streptavidin-Allophycocyanin detection reagent (SA-APC, Prozyme, Calif.). The kinase reaction is performed in a black U-bottom 96-well microtitre plate. […] The reaction is allowed to proceed for 1 hour at room temperature. […] The detection reagents are added to the reaction mixture at the following dilutions-1:500 for Eu-W1024-PY100 and 1:250 for SA-APC. The kinase reaction is terminated by the addition of 50 μL quench buffer containing the detection reagents. The detection is allowed to proceed for 1 hr at room temperature. Detection of the phosphorlated substrate in the absence and presence of inhibitors is measured in the TR-FRET instrument, Analyst HT ([…], Sunnyvale, Calif.) and the condition for measurements are set up using CriterionHost Release 2.0 ([…], Sunnyvale, Calif.). […] IC50s were derived by non-linear regression analysis.

IC50 [nM] | Structure (SMILES)
> 1000 | CN1C(=O)CCc2cc(Nc3nc(N)c4c(-c5ccc(F)cc5)c[nH]c4n3)ccc21 [Example 113, 6-(4-Amino-5-(4-fluorophenyl)-7H-pyrrolo[2,3-d]pyrimidin-2-ylamino)-1-methyl-3,4-dihydroquinolin-2(1H)-one]
100 to 1000 | CN(C(=O)C1CC1)c1ccc(Nc2nc(NC3CCC3)c3cc[nH]c3n2)cc1 [Example 80, N-(4-(4-(cyclobutylamino)-7H-pyrrolo[2,3-d]pyrimidin-2-ylamino)phenyl)-N-methylcyclopropanecarboxamide]
> 1000 | CC(=O)N1CCN(c2ccc(Nc3ncc(F)c(N4CCN(C(N)=O)CC4)n3)cc2)CC1 [Example 125, 4-(2-(4-(4-acetylpiperazin-1-yl)phenylamino)-5-fluoropyrimidin-4-yl)piperazine-1-carboxamide]
> 1000 | O=C(O)CC1CCN(c2nc(Nc3ccc4c(c3)CCC(=O)N4)nc3[nH]ccc23)CC1 [Example 120, 2-(1-(2-(2-oxo-1,2,3,4-tetrahydroquinolin-6-ylamino)-7H-pyrrolo[2,3-d]pyrimidin-4-yl)piperidin-4-yl)acetic acid]
> 1000 | Nc1nc(Nc2ccc(C(=O)O)cc2)nc2[nH]cc(-c3ccncc3)c12 [Example 102, 4-(4-amino-5-(pyridin-4-yl)-7H-pyrrolo[2,3-d]pyrimidin-2-ylamino)benzoic acid]
100 to 1000 | CS(=O)(=O)Cc1ccc(Nc2nc(NC3CCC3)c3cc[nH]c3n2)cc1 [Example 76]
100 to 1000 | CN1C(=O)CCc2cc(Nc3nc(Nc4ccc(F)cc4)c4c(-c5ccncc5)c[nH]c4n3)ccc21 [Example 112, 6-(4-(4-fluorophenylamino)-5-(pyridin-4-yl)-7H-pyrrolo[2,3-d]pyrimidin-2-ylamino)-1-methyl-3,4-dihydroquinolin-2(1H)-one]
10 to 100 | CC(=O)N1CCN(c2ccc(Nc3ncc(Cl)c(N4CCC(CN)CC4)n3)cc2)CC1 [Example 122, 1-(4-(4-(4-(4-(aminomethyl)piperidin-1-yl)-5-chloropyrimidin-2-ylamino)phenyl)piperazin-1-yl)ethanone]
100 to 1000 | COCCNc1nc(Nc2ccc3cn[nH]c3c2)nc2[nH]ccc12 [Example 89, N^2-(1H-indazol-6-ylamino)-N^4-(2-methoxyethyl)-7H-pyrrolo[2,3-d]pyrimidine-2,4-diamine]
> 1000 | NCC1CCN(c2nc(Nc3ccc4c(c3)CCC(=O)N4)ncc2-c2ccncc2)CC1 [Example 138, 6-(4-(4-(aminomethyl)piperidin-1-yl)-5-(pyridin-4-yl)pyrimidin-2-ylamino)-3,4-dihydroquinolin-2(1H)-one]
> 1000 | CC(=O)N(C)c1ccc(Nc2nc(NC3CCCCC3N)c3cc[nH]c3n2)cc1 (stereo not drawn) [Example 63, N-(4-(4-(2-aminocyclohexylamino)-7H-pyrrolo[2,3-d-]pyrimidin-2-ylamino)phenyl)-N-methylacetamide]
> 1000 | CC(=O)N1CCN(c2ccc(Nc3ncc(F)c(N4CCNCC4)n3)cc2)CC1 [Example 124, 1-(4-(4-(5-fluoro-4-(piperazin-1-yl)pyrimidin-2-ylamino)phenyl)piperazin-1-yl)ethanone]
10 to 100 | CC(=O)N1CCN(c2ccc(Nc3nc(NC4CC4)c4c(C#N)c[nH]c4n3)cc2)CC1 [Example 107, 2-(4-(4-acetylpiperazin-1-yl)phenylamino)-4-(cyclopropylamino)-7H-pyrrolo[2,3-d]pyrimidine-5-carbonitrile]
100 to 1000 | C[C@H](CO)Nc1nc(Nc2ccc(N3CCNCC3)cc2)nc2[nH]ccc12 [Example 98B, (R)-2-(2-(4-(piperazin-1-yl)phenylamino)-7H-pyrrolo[2,3-d]pyrimidin-4-ylamino)propan-1-ol]
100 to 1000 | CC(=O)N(C)c1ccc(Nc2nc(Nc3cccc(S(N)(=O)=O)c3)c3cc[nH]c3n2)cc1 [Example 68, N-(4-(4-(3-aminosulfonyl-phenylamino)-7H-pyrrolo[2,3-d]pyrimidin-2-ylamino)phenyl)-N-methylacetamide]
10 to 100 | N#Cc1c[nH]c2nc(Nc3ccc(C(N)=O)cc3)nc(NC3CC3)c12 [Example 104, 4-(5-cyano-4-(cyclopropylamino)-7H-pyrrolo[2,3-d]pyrimidin-2-ylamino)benzamide]
10 to 100 | CC(=O)N1CCN(c2ccc(Nc3nc(NC4CCC(N)CC4)c4cc[nH]c4n3)cc2)CC1 (centres unmarked) [Example 66, 1-(4-(4-(4-(4-aminocyclohexylamino)-7H-pyrrolo[2,3-d]pyrimidin-2-ylamino)phenyl)piperazin-1-yl)ethanone]
100 to 1000 | CN(C)CC(=O)N(C)c1ccc(Nc2nc(NC3CCC3)c3cc[nH]c3n2)cc1 [Example 84, N-(4-(4-(cyclobutylamino)-7H-pyrrolo[2,3-d]pyrimidin-2-ylamino)phenyl)-2-(dimethlamino)-N-methylacetamide]
100 to 1000 | Nc1nc(Nc2ccc3cn[nH]c3c2)nc2[nH]ccc12 [Example 79, N^2-(1H-indazol-6-yl)-7H-pyrrolo[2,3-d]pyrimidin-2,4-diamine]
100 to 1000 | CC(=O)N1CCN(c2ccc(Nc3nc(Nc4cccc(C(N)=O)c4)c4cc[nH]c4n3)cc2)CC1 [Example 95A, 3-(2-(4-(4-acetylpiperazin-1-yl)phenylamino)-7H-pyrrolo[2,3-d]pyrimidin-4-ylamino)benzamide]
> 1000 | NC(=O)c1cnc(-[n+]2ccn(-c3ccc(N)cc3)c2)nc1NC1CC1 [Example 6, 1-(4-aminophenyl)-3-(5-carbamoyl-4-(cyclopropylamino)pyrimidin-2-yl)-1H-imidazol-3-ium]
100 to 1000 | NCCOCCNc1nc(Nc2ccc(N3CCC[C@H]3C(N)=O)cc2)nc2[nH]ccc12 [Example 94, (S)-1-(4-(4-(2-(2-aminoethoxy)ethylamino)-7H-pyrrolo[2,3-d]pyrimidin-2-ylamino)phenyl)pyrrolidine-2-carboxamide]
> 1000 | N#CCC(=O)N1CCC(Nc2nc(Nc3ccc(C(N)=O)cc3)nc3[nH]ccc23)CC1 [Example 109, 4-(4-(1-(2-cyanoacetyl)piperidin-4-ylamino)-7H-pyrrolo[2,3-d]pyrimidin-2-ylamino)benzamide]
> 1000 | CC(=O)N1CCN(c2ccc(Nc3ncc(F)c(N4CCC(NC(N)=O)CC4)n3)cc2)CC1 [Example 129, 1-(1-(2-(4-(4-acetylpiperazin-1-yl)phenylamino)-5-fluoropyrimidin-4-yl)piperidin-4-yl)urea]

Structure (SMILES) | IC50 [nM]
CCCCOC(C)c1c[nH]c2nc(Nc3ccc4cn[nH]c4c3)nc(NC3CC3)c12 (centres unmarked) [Example 41, 5-(1-butoxyethyl)-N4-cyclopropyl-N2-(1H-indazol-6-yl)-7H-pyrrolo[2,3-d]pyrimidine-2,4-diamine] | 100 to 1000

same assay, conditions: Table 4; 1 nM SYK, 100 μM ATP; read-out: syk IC50

IC50 [nM] | Structure (SMILES)
> 1000 | NCC1CCCCN1c1nc(Nc2ccc3cn[nH]c3c2)ncc1F (centres unmarked) [Example 36, N-(4-(2-(aminomethyl)piperidin-1-yl)-5-fluoropyrimidin-2-yl)-1H-indazol-6-amine]
100 to 1000 | CC(=O)N1CCN(c2ccc(Nc3ncc(C(N)=O)c(N4CCCC(CO)C4)n3)cc2)CC1 (centres unmarked) [2-(4-(4-acetylpiperazin-1-yl)phenylamino)-4-(3-(hydroxymethyl)piperidin-1-yl)pyrimidine-5-carboxamide]
100 to 1000 | CC(=O)N1CCN(c2ccc(Nc3nc(N4CCCC4)c4cc[nH]c4n3)cc2)CC1 [Example 22, 1-(4-(4-(4-(pyrrolidin-1-yl)-7H-pyrrolo[2,3-d]pyrimidin-2-ylamino)phenyl)piperazin-1-yl)ethanone]
100 to 1000 | N[C@H]1CCCN(c2nc(Nc3ccc4cn[nH]c4c3)nc3[nH]ccc23)C1 [(S)-4-(3-aminopiperidin-1-yl)-N-(1H-indazol-6-yl)-7H-pyrrolo[2,3-d]pyrimidin-2-amine]
> 1000 | NC(=O)C1CCN(c2nc(Nc3ccc(N4CCNCC4)cc3)nc3[nH]ccc23)CC1 [Example 23, 1-(2-(4-(piperazin-1-yl)phenylamino)-7H-pyrrolo[2,3-d]pyrimidin-4-yl)piperidine-4-carboxamide]
100 to 1000 | CC(=O)N1CCN(c2ccc(Nc3ncc(C(N)=O)c(N4CCCN(CCO)CC4)n3)cc2)CC1 [2-(4-(4-acetylpiperazin-1-yl)phenylamino)-4-(4-(2-hydroxyethyl)-1,4-diazepan-1-yl)pyrimidine-5-carboxamide]
100 to 1000 | c1cc2c(N3CCCC3)nc(Nc3ccc(N4CCNCC4)cc3)nc2[nH]1 [Example 21, N-(4-(piperazin-1-yl)phenyl)-4-(pyrrolidin-1-yl)-7H-pyrrolo[2,3-d]pyrimidin-2-amine]
